In patent EP0733369A1, “Protease inhibitors, a DNA construct for the expression of a protease and a process for measuring proteases and/or protease inhibitors” (Stichting REGA V.Z.W., priority 1995, dated 1996):
pIC50: −log10 of the molar value. “Also recorded” adds a separate entry of the source.

Assays:
[1] = target: u-PA (Homo sapiens, UniProt P00749); test: ID50 on homogeneous enzyme; type: biochemical
[2] = target: t-PA (Homo sapiens, UniProt P00750); test: ID50 on homogeneous enzyme; type: biochemical
[3] = target: T1, Gelatinase B (Homo sapiens, UniProt P14780); test: ID50 on homogeneous enzyme; type: biochemical
Target sequence in this assay (P14780 107-707): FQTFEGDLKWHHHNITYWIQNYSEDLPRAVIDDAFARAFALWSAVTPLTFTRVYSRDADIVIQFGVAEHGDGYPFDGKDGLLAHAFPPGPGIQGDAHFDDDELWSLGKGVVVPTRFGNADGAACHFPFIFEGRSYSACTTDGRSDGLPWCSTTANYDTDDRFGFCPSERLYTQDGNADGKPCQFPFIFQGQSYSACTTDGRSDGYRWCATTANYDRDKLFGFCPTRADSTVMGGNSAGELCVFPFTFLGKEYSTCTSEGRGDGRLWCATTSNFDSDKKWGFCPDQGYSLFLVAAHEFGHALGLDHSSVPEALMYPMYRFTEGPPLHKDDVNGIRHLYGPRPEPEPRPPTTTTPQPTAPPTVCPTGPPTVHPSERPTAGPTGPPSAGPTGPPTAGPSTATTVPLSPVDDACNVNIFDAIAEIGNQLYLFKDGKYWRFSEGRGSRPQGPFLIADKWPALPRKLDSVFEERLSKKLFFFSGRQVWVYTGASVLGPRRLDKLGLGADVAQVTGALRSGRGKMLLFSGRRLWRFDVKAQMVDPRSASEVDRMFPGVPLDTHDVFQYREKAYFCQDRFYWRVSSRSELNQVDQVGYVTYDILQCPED

[4] = target: T2, Gelatinase A (Homo sapiens, UniProt P08253); test: zymography of cerebrospinal fluid of MS / optic neuritis patients with inhibitor; type: biochemical; conditions: CSF of MS patients, increasing concentrations
T2 construct: from tissue; host or cells: cerebrospinal fluid of patients with multiple sclerosis or optic neuritis
T2 sequence (P08253 110-660): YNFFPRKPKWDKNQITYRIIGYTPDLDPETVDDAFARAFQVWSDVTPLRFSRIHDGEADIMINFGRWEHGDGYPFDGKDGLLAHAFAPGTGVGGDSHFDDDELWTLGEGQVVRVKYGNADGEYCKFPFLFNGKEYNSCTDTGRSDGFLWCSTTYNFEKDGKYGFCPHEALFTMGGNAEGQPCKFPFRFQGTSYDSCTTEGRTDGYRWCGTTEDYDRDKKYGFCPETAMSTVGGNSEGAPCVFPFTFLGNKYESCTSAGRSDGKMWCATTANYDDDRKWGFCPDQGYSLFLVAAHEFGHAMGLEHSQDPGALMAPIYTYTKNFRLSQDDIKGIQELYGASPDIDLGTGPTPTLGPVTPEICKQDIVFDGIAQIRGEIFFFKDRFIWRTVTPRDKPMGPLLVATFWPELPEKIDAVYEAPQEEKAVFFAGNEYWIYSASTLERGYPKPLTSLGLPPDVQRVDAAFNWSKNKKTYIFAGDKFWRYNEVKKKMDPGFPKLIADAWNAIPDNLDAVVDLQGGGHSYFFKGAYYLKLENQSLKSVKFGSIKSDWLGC
Experimental: (§1) Quantitative zymography was performed as described (7,8). Briefly, 40 µl of loading buffer was added to 40 µl of each sample and applied on 7.5% polyacrylamide gels which had been co-polymerised with 0.1% (w/v) gelatin. Stacking gels contained 5% polyacrylamide. The gels were run at 4°C for 16h at 90V. The gels were then incubated in washing buffer (50 mM Tris-HCl pH 7.5, 10mM CaCl2, O.O2% (W/V) NaN3, 2.5% (v/v) Triton X-100) at room temperature, 2x20 min to remove sodium dodecyl sulfate and overnight in developing buffer (50 mM Tris-HCl pH 7.5, 10mM CaCl2, O.O2% (w/v) NaN3, 1% (v/v) Triton X-100) at 37°C. […] The sites of gelatinase activity appeared as unstained bands on a blue background and were quantified by computerised image analysis through scanning densitometry with a PDI scanner (Pharmacia, Belgium) and the PDI software package. […]
(§2) Similar results were obtained when pure preparations of gelatinase B were tested or when gelatinase B was measured in the presence of D-penicillamine in body fluids or cell supernatants.
(§3) Figure 13. […] Gelatinase A (---) and B(_) activities in the CSF were measured by zymography in the absence or the presence of increasing concentrations of D-penicillamine. The scanning indices for each patient are calculated at the residual activity in the presence of inhibitor versus the activity without inhibitor. […]

[5] = system: human monocytic cell line THP-1; test: gelatinase B protein (zymography) and mRNA (northern blot) production in THP-1 cultures; type: cell-based; conditions: THP-1, LPS 1µg/ml, RA 100nM or untreated; D-penicillamine 50 µg/ml; 16 h
Experimental: Figure 14. […] Cultures of the human monocytic cell line THP-1 were stimulated with lipopolysaccharide (LPS, 1µg/ml), retinoic acid (RA, 100nM) or left untreated (CO) in the presence or absence of D-penicillamine (DPEN, 50 µg/ml). After 16 h total RNA was extracted and gelatinase B mRNA was measured by northern blot analysis with a human probe (41) (a). Gelatinase B protein in the cell culture fluids was assayed by zymographic analysis on gelatin substrate gels (b).

[6] = system: chronic relapsing EAE; test: chronic relapsing EAE in Biozzi AB/H mice; type: in vivo; conditions: 750 µg three times weekly from day 22 onwards
[7] = system: hyperacute experimental allergic encephalomyelitis (EAE); test: acute (hyperacute) EAE in SJL mice; conditions: intraperitoneal, equivalent of 27 to 375 µg per mouse daily
Experimental: In both hind paws 50µl of this emulsion was injected on day 0. On day 0 and 2, 50µl B.pertussis (200x10^9 bacteria/ml) were injected intraveneously. […] The control group received injections with 0.9% NaCl, used as excipiens. The animals were daily monitored and the disease and mortality were scored.).

[8] = target: T1, Gelatinase B; test: zymography of cerebrospinal fluid of MS / optic neuritis patients with inhibitor; type: biochemical; parameters: from tissue; host or cells: cerebrospinal fluid of patients with multiple sclerosis or optic neuritis; conditions: CSF of MS patients, increasing concentrations
Experimental: as §1, §2, §3
Target sequence in this assay (P14780 94-707): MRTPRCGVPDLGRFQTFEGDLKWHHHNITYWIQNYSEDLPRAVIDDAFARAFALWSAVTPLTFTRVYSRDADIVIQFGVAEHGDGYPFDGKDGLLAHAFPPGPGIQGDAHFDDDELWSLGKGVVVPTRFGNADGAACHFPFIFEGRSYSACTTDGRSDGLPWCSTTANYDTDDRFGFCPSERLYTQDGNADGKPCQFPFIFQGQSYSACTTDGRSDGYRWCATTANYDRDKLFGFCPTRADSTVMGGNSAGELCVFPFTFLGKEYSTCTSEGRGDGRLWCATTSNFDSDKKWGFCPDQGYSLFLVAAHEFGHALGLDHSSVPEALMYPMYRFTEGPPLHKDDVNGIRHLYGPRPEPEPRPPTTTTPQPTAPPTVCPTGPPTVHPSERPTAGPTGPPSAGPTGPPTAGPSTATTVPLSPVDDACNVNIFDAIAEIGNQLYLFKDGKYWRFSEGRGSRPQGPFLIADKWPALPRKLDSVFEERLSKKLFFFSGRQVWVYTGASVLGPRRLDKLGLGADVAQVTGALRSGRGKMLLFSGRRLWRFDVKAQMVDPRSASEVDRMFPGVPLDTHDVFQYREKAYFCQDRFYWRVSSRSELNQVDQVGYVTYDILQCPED

[9] = target: T3, gelatinase B from neutrophils (Homo sapiens, UniProt P14780); test: gelatinase (inhibitor) microtiter plate assay with biotinylated gelatin; type: biochemical; parameters: endogenous in cells; host or cells: human neutrophils stimulated with lipopolysaccharide; conditioned medium; conditions: qualitative statements
Experimental: The measurement of gelatinase activity was based on the detection of non-degraded biotinylated gelatin with a streptavidin-peroxidase conjugate. This test is based on the biotin-avidin method described by Sorbi et al. (25) but modified to a one plate assay (schematically represented in Fig. 1.). Gelatin (1mg/ml) was dissolved in 0.1 M sodium bicarbonate pH 8.3 by heating to 40°C. Biotin-N-hydroxysuccinimide ester was dissolved in dimethylsulfoxide (Me2SO) and was added to the gelatin in a 15-fold molar excess. The mixture was allowed to react overnight at 4°C and the biotinylated gelatin was then dialyzed against phosphate buffered saline (PBS). Neutrophil granulocyte (Neu) medium was collected from human neutrophils after stimulation with lipopolysaccharide (1µg/ml) overnight at 37°C in Minimal Essential Medium. Cells were removed by 10 min centrifugation at 1000 g. Purified gelatinase was obtained by one-step affinity chromatography of neutrophil medium on a gelatin-sepharose column as described (8).
Modified flat bottom 96-well ELISA plates were coated overnight with 0.5 µg/ml avidin in distilled water. The plates were then blocked with 0.3% bovine serum albumin (BSA, Sigma) in PBS for 1 hour at 37°C. Biotinylated gelatin was diluted to 50 µg/ml and 100µl was added to the avidin-coated wells. After incubation for one hour at 20°C, the plate was rinsed with PBS. Medium containing the secreted gelatinases from human neutrophils (dilution range 1/3-1/3^11) and the inhibitors were diluted in incubation buffer (50 mM Tris-HCl pH 7.5, 10 mM CaCl2, 0.02% (W/V) NaN3, 1% (V/V) Triton X-100) and 100 µl of each were mixed. 190 µl of the mixture was added to the gelatin-coated plates and allowed to digest the gelatin overnight at 37°C. The plates were then washed with PBS and each well was incubated with 100 µl peroxidase-conjugated-streptavidin at a 1:2000 dilution for 1 hour at 37°C. After rinsing the plate, the ABTS substrate was added (0.5 mg/ml solution containing 0.1 M citric acid, 0.2 M Na2HPO4, pH 4.3, 0.07 µl/ml 30% H2O2) and the optical density was read at 405 nm after 10 min. incubation at room temperature. Additional information on published test systems used here for comparison.
Gelatin is biotinylated and bound to avidin-coated microtiter plates. By addition of gelatinases the number of free biotin groups decreases and proportionally less streptavidin-peroxidase is bound to the residual substrate. Bound streptavidin-peroxidase activity is measured spectrophotometrically by reaction of peroxide with ABTS. Inhibition of gelatinase is obtained by the addition of inhibitor to a known amount of gelatinase prior to application to the plates. The peroxidase activity increases proportionally with the inhibitory activity.
Plates were first coated with 10µg/ml avidin and 50µg/ml biotinylated gelatin (theoretically saturating the avidin binding sites). As the sensitivity of the assay is dependent on the detection of the minimal amount of degraded biotinylated gelatin, we investigated wether decreasing the amount of biotin-gelatin (50 µg/ml-23 ng/ml) bound to the avidin-coated (10µg/ml) plate increased the sensitivity of the assay. […] Thus it was verified whether a decrease in the avidin coating could make the assay more sensitive (Fig. 2). […] In all further examples plates were coated with 0.5 µg/ml avidin and 50 µg/ml gelatin-biotin.
The titration curves of gelatinase inhibition were always related to a blanc curve and this for enzyme concentrations within the slope of the curve (vertical dotted lines Fig. 3). The decrease in enzyme activity to which the inhibitor-incubated sample corresponded was defined as the inhibition factor (IF).

[10] = target: T3, gelatinase B from neutrophils; test: zymography inhibition assay, inhibitor in developing buffer; type: biochemical; parameters: The 92 kDa neutrophil gelatinase is indicated with an arrowhead; endogenous in cells; host or cells: human neutrophils; purified from conditioned medium on gelatin-Sepharose; conditions: qualitative statements
Experimental: Quantitative zymography was performed as described (7,8). Briefly, 40 µl of loading buffer was added to 40 µl of each sample and applied on 7.5% polyacrylamide gels which had been co-polymerised with 0.1% (w/v) gelatin. Stacking gels contained 5% polyacrylamide. The gels were run at 4°C for 16h at 90V. The gels were then incubated in washing buffer (50 mM Tris-HCl pH 7.5, 10mM CaCl2, O.O2% (W/V) NaN3, 2.5% (v/v) Triton X-100) at room temperature, 2x20 min to remove sodium dodecyl sulfate and overnight in developing buffer (50 mM Tris-HCl pH 7.5, 10mM CaCl2, O.O2% (w/v) NaN3, 1% (v/v) Triton X-100) at 37°C. The gels were then stained in Coomassie brilliant blue R-250 and destained in methanol/acetic acid. The sites of gelatinase activity appeared as unstained bands on a blue background and were quantified by computerised image analysis through scanning densitometry with a PDI scanner (Pharmacia, Belgium) and the PDI software package. For inhibition experiments, the inhibitors were dissolved in the developing buffer at the appropriate concentration. […] The enzyme activity was developed by staining of the substrate with Coomassie blue and quantification of the substrate digestion by scanning densitometry. […] The enzyme activity was developed by staining of the substrate with Coomassie blue and quantification of the substrate digestion by scanning densitometry. […]

T3 sequence (P14780 94-707): as above
Chain of t-PA (P00750 36-562, species assumed): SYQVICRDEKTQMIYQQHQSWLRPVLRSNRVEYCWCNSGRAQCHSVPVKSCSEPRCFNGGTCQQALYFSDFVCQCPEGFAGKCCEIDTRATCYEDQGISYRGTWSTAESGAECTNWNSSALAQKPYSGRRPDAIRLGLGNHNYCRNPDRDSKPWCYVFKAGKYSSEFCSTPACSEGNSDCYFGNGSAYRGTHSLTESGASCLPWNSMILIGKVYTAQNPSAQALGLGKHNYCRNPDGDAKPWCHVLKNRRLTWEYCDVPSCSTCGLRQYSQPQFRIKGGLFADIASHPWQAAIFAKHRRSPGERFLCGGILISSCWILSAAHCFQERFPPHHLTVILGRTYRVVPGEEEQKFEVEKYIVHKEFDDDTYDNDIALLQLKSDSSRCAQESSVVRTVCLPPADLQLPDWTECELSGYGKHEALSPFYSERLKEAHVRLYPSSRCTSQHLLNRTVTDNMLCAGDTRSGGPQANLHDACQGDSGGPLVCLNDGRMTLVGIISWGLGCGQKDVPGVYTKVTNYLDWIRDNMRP

## CC(C)(S)[C@@H](N)C(=O)O [D-penicillamine]
[1]
  pIC50: 4.03
[2]
  pIC50: 3.92
[3]
  pIC50: 4.70
[4]
  inhibition of Gelatinase A in cerebrospinal fluid (in words): inhibited in a dose-dependent way
[5]
  spontaneous and induced levels of gelatinase B mRNA: remained constant
  spontaneous and induced levels of gelatinase B protein: remained constant
[6]
  disease recurrencies in chronic relapsing EAE: abrogated the exacerbations; also recorded: abrogated the disease recurrencies
[7]
  development of disease symptoms in acute EAE: complete blockage; also recorded: inhibits in a dose-dependent way the development of disease symptoms
[8]
  inhibition of Gelatinase B in cerebrospinal fluid (in words): inhibited in a dose-dependent way
[9]
  gelatinase B inhibitory activity in the plate assay (in words): inhibitor of gelatinase B
[10]
  inhibition of gelatinase B on zymography (in words): inhibitor of gelatinase B
